Laboratory results as given in patent US10570122B2, “Compounds with anti-tumoral activity” (AB Science, priority 2015, dated 2020).

Assays:
BT20 = experiment: CellTiter-Blue cell-based survival/proliferation assay, BT20; settings: Homo sapiens, BT-20; BT20 breast tumor cell line, 48 h
Protocol: (§1) Cell-Based Proliferation Screening of Compounds
(§2) CellTiter-Blue cell-based survival/proliferation assay (Promega G8080) was performed on tumor cell lines. A total of 1·10^4 cells/well/50 μl were seeded in a 96-wells plate. Treatment was initiated by addition of a 2× drug solution of 1/10 serial dilutions ranging from 0 to 10 μM. Cells were grown for 48 h at 37° C. and then incubated with 10 μl/well of Promega CellTiter-Bleue reagent for 4 h at 37° C. The amount of resorufin dye formed was quantified by its fluorescence emission at 590 nm using a scanning multiwell spectrophotometer (OPTIMA, BMG labtech, France). A blank well without cells was used as a background control for the spectrophotometer.

MESSA = experiment: CellTiter-Blue cell-based survival/proliferation assay, MESSA; settings: Homo sapiens, MES-SA; MESSA ovary tumor cell line, 48 h
Protocol: as §1, §2

OPM2 = experiment: CellTiter-Blue cell-based survival/proliferation assay, OPM2; settings: Homo sapiens, OPM-2, Myeloma cell line OPM2, 48 h, read-out: Anti-tumoral activity (measured IC50) OPM2
Protocol: as §1, §2

AGS = experiment: CellTiter-Blue cell-based survival/proliferation assay, AGS; settings: Homo sapiens; AGS stomach tumor cell line, 48 h
Protocol: as §1, §2

[1] = system: panel of about 34 human tumor cell lines; experiment: Cell-based proliferation screening on panel of tumor cell lines; settings: solid tumor cell line, cell line unknown, 48 h, read-out: IC50, solid tumor cell line of column 6 (last section of Table 3)
Protocol: Compounds of formula (I) were tested against a panel of about 34 human tumor cell lines representing 17 cancer type, namely leukemia (represented by 1 cell line), lymphoma (4 cell lines), myeloma (1 cell line), colorectal (2 cell lines), head and neck (3 cell lines), lung (3 cell lines), melanoma (2 cell lines), pancreas (2 cell lines), prostate (2 cell lines), ovary (2 cell lines) breast (2 cell lines), kidney (2 cell lines), stomach (2 cell lines), liver (2 cell lines), glioblastoma (2 cell lines), osteosarcoma (1 cell line), Ewing Sarcoma (1 cell line).
as §1, §2

DLD1 = experiment: CellTiter-Blue cell-based survival/proliferation assay, DLD1; settings: Homo sapiens, DLD-1; DLD_1 colorectal tumor cell line, 48 h
Protocol: as §1, §2

HCT116 = experiment: CellTiter-Blue cell-based survival/proliferation assay, HCT116; settings: Homo sapiens, HCT-116; HCT116 colorectal tumor cell line, 48 h
Protocol: as §1, §2

CLS354 = experiment: CellTiter-Blue cell-based survival/proliferation assay, CLS354; settings: Homo sapiens, CLS-354; CLS354_4 head & neck tumor cell line, 48 h
Protocol: as §1, §2

HGC27 = experiment: CellTiter-Blue cell-based survival/proliferation assay, HGC27; settings: Homo sapiens, HGC-27; HGC27 stomach tumor cell line, 48 h
Protocol: as §1, §2

MDAMB231 = experiment: CellTiter-Blue cell-based survival/proliferation assay, MDAMB231; settings: Homo sapiens, MDA-MB-231; MDAMB231 breast tumor cell line, 48 h
Protocol: as §1, §2

REC1 = experiment: CellTiter-Blue cell-based survival/proliferation assay, REC1; settings: Homo sapiens, Lymphoma cell line REC1, 48 h, read-out: Anti-tumoral activity (measured IC50) REC1
Protocol: as §1, §2

HUT78 = experiment: CellTiter-Blue cell-based survival/proliferation assay, HUT78; settings: Homo sapiens, Lymphoma cell line HUT78, 48 h, read-out: Anti-tumoral activity (measured IC50) HUT78
Protocol: as §1, §2

H1299 = experiment: CellTiter-Blue cell-based survival/proliferation assay, H1299; settings: Homo sapiens, NCI-H1299; H1299 lung tumor cell line, 48 h
Protocol: as §1, §2

PC3 = experiment: CellTiter-Blue cell-based survival/proliferation assay, PC3; settings: Homo sapiens, PC-3; PC3 prostate tumor cell line, 48 h
Protocol: as §1, §2

DU145 = experiment: CellTiter-Blue cell-based survival/proliferation assay, DU145; settings: Homo sapiens, DU-145; DU145 prostate tumor cell line, 48 h
Protocol: as §1, §2

A498 = experiment: CellTiter-Blue cell-based survival/proliferation assay, A498; settings: Homo sapiens; A498 kidney tumor cell line, 48 h
Protocol: as §1, §2

PLCPRF5 = experiment: CellTiter-Blue cell-based survival/proliferation assay, PLCPRF5; settings: Homo sapiens, PLC-PRF-5; PLC_PRF5 liver tumor cell line, 48 h
Protocol: as §1, §2

HL60 = experiment: CellTiter-Blue cell-based survival/proliferation assay, HL60; settings: Homo sapiens, HL-60, Leukemia cell line HL60, 48 h, read-out: Anti-tumoral activity (measured IC50) HL60
Protocol: as §1, §2

PANC1 = experiment: CellTiter-Blue cell-based survival/proliferation assay, PANC1; settings: Homo sapiens, PANC-1; PANC_1 pancreas tumor cell line, 48 h
Protocol: as §1, §2

CALU6 = experiment: CellTiter-Blue cell-based survival/proliferation assay, CALU6; settings: Homo sapiens, Calu-6; CALU6 lung tumor cell line, 48 h
Protocol: as §1, §2

TOV112D = experiment: CellTiter-Blue cell-based survival/proliferation assay, TOV112D; settings: Homo sapiens; TOV112D ovary tumor cell line, 48 h
Protocol: as §1, §2

SW579 = experiment: CellTiter-Blue cell-based survival/proliferation assay, SW579; settings: Homo sapiens; SW579 head & neck tumor cell line, 48 h
Protocol: as §1, §2

ACHN = experiment: CellTiter-Blue cell-based survival/proliferation assay, ACHN; settings: Homo sapiens; ACHN kidney tumor cell line, 48 h
Protocol: as §1, §2

HEPG2 = experiment: CellTiter-Blue cell-based survival/proliferation assay, HEPG2; settings: Homo sapiens; HEPG2 liver tumor cell line, 48 h
Protocol: as §1, §2

KARPAS299 = experiment: CellTiter-Blue cell-based survival/proliferation assay, KARPAS299; settings: Homo sapiens, KARPAS-299, Lymphoma cell line KARPAS299, 48 h, read-out: Anti-tumoral activity (measured IC50) KARPAS299
Protocol: as §1, §2

A549 = experiment: CellTiter-Blue cell-based survival/proliferation assay, A549; settings: Homo sapiens; A549 lung tumor cell line, 48 h
Protocol: as §1, §2

HEP2 = experiment: CellTiter-Blue cell-based survival/proliferation assay, HEP2; settings: Homo sapiens, HEp-2; HEP2 head & neck tumor cell line, 48 h
Protocol: as §1, §2

BXPC3 = experiment: CellTiter-Blue cell-based survival/proliferation assay, BXPC3; settings: Homo sapiens, BXPC-3; BXPC3 pancreas tumor cell line, 48 h
Protocol: as §1, §2

SMILES	IC50 (BT20) [µM]	IC50 (MESSA) [µM]	IC50 (OPM2) [µM]	IC50 (AGS) [µM]	IC50 [1] [µM]	IC50 (DLD1) [µM]	IC50 (HCT116) [µM]	IC50 (CLS354) [µM]	IC50 (HGC27) [µM]	IC50 (MDAMB231) [µM]	IC50 (H1299) [µM]	IC50 (PC3) [µM]	IC50 (DU145) [µM]	IC50 (A498) [µM]	IC50 (PLCPRF5) [µM]	IC50 (HL60) [µM]	IC50 (PANC1) [µM]	IC50 (CALU6) [µM]	IC50 (TOV112D) [µM]	IC50 (SW579) [µM]	also measured
CCOCc1cccc(Nc2ncc(-c3ccc(-n4cccn4)cc3)o2)c1 [Example 020, (3-Ethoxymethyl-phenyl)-[5-(4-pyrazol-1-yl-phenyl)-oxazol-2-yl]-amine]	> 1	> 1	≤ 0.1	> 1	≤ 0.1	0.1 to 0.5	> 1	≤ 0.1	> 1	0.1 to 0.5	> 1	≤ 0.1	> 1	> 1	> 1	≤ 0.1	> 1	> 1	> 1	> 1	IC50 (REC1): ≤ 0.1 µM; IC50 (HUT78): ≤ 0.1 µM; IC50 (ACHN): > 1 µM; IC50 (HEPG2): > 1 µM; IC50 (KARPAS299): ≤ 0.1 µM; IC50 (A549): > 1 µM; IC50 (HEP2): > 1 µM; IC50 (BXPC3): 0.5 to 1 µM
CCOCc1cc(C)cc(Nc2ncc(-c3ccc(-n4cccn4)cc3)o2)c1 [Example 021, (3-Ethoxymethyl-5-methyl-phenyl)-[5-(4-pyrazol-1-yl-phenyl)-oxazol-2-yl]-amine]	> 1	> 1	0.1 to 0.5	> 1	0.1 to 0.5	0.5 to 1	> 1	0.1 to 0.5	> 1	> 1	> 1	0.5 to 1	> 1	> 1	> 1	0.1 to 0.5	> 1	> 1	> 1	> 1	IC50 (REC1): 0.1 to 0.5 µM; IC50 (HUT78): 0.5 to 1 µM; IC50 (ACHN): > 1 µM; IC50 (HEPG2): > 1 µM; IC50 (KARPAS299): 0.1 to 0.5 µM; IC50 (A549): > 1 µM; IC50 (HEP2): > 1 µM; IC50 (BXPC3): > 1 µM
CCOCc1ccc(C)c(Nc2ncc(-c3ccc(-c4ccn[nH]4)cc3)o2)c1 [Example 057, 5-(4-(1H-pyrazol-5-yl)phenyl)-N-(5-(ethoxymethyl)-2-methylphenyl)oxazol-2-amine]	> 1	> 1	0.1 to 0.5	> 1	0.5 to 1	> 1	> 1	0.1 to 0.5	> 1	> 1	> 1	0.5 to 1	> 1	> 1	> 1	0.1 to 0.5	> 1	> 1	≤ 0.1	> 1	IC50 (ACHN): > 1 µM; IC50 (HEPG2): > 1 µM; IC50 (A549): > 1 µM; IC50 (HEP2): 0.5 to 1 µM; IC50 (BXPC3): > 1 µM
CCOCc1ccc(C)c(Nc2ncc(-c3ccc(N4C(=O)NC[C@H]4C)nc3)o2)c1 [Example 058, (R)-1-(5-(2-((5-(ethoxymethyl)-2-methylphenyl)amino)oxazol-5-yl)pyridin-2-yl)-5-methylimidazolidin-2-one]	> 1	> 1	≤ 0.1	> 1	0.1 to 0.5	> 1	> 1	≤ 0.1	> 1	> 1	> 1	≤ 0.1	> 1	> 1	> 1	≤ 0.1	> 1	> 1	≤ 0.1	> 1	IC50 (ACHN): > 1 µM; IC50 (HEPG2): > 1 µM; IC50 (A549): > 1 µM; IC50 (HEP2): 0.1 to 0.5 µM; IC50 (BXPC3): > 1 µM
CCOCc1cc(Nc2ncc(-c3ccc(N4CCNC4=O)cc3)o2)cc(OCCO)c1 [Example 059, 1-(4-(2-((3-(ethoxymethyl)-5-(2-hydroxyethoxy)phenyl)amino)oxazol-5-yl)phenyl)imidazolidin-2-one]	> 1	> 1	≤ 0.1	> 1	≤ 0.1	> 1	≤ 0.1	≤ 0.1	> 1	> 1	> 1	≤ 0.1	> 1	> 1	> 1	≤ 0.1	> 1	> 1	≤ 0.1	≤ 0.1	IC50 (ACHN): > 1 µM; IC50 (HEPG2): > 1 µM; IC50 (A549): > 1 µM; IC50 (HEP2): ≤ 0.1 µM; IC50 (BXPC3): 0.5 to 1 µM
CCOCc1ccc(C)c(Nc2ncc(-c3ccc(-c4cn[nH]c4)cc3)o2)c1 [Example 060, 5-(4-(1H-pyrazol-4-yl)phenyl)-N-(5-(ethoxymethyl)-2-methylphenyl)oxazol-2-amine]	> 1	> 1	0.5 to 1	> 1	> 1	> 1	> 1	> 1	> 1	> 1	> 1	> 1	> 1	> 1	> 1	0.5 to 1	> 1	> 1	> 1	> 1	IC50 (ACHN): > 1 µM; IC50 (HEPG2): > 1 µM; IC50 (A549): > 1 µM; IC50 (HEP2): > 1 µM; IC50 (BXPC3): > 1 µM
CCOCc1ccc(C)c(Nc2ncc(-c3ccc(-c4ccnn4C)cc3)o2)c1 [Example 061, N-(5-(ethoxymethyl)-2-methylphenyl)-5-(4-(1-methyl-1H-pyrazol-5-yl)phenyl)oxazol-2-amine]	> 1	> 1	> 1	> 1	> 1	> 1	> 1	> 1	> 1	> 1	> 1	> 1	> 1	> 1	> 1	> 1	> 1	> 1	> 1	> 1	IC50 (ACHN): > 1 µM; IC50 (HEPG2): > 1 µM; IC50 (A549): > 1 µM; IC50 (HEP2): > 1 µM; IC50 (BXPC3): > 1 µM
